In series [1] the test system is C. albicans. Nature of the series: LC50 (24 hrs.), doses required to inhibit growth in 50%, different method. As to conditions: for IC50: Candida albicans, 24 hrs. It is filed as cell-based, Candida albicans. From the text:
Doses Required to Inhibit Growth of C. albicans
in 50% During 24 hrs. (ng/ml)

The subject of series [2] is bacteria. Nature of the series: Anti-bacterial activity (summary). It is filed as cell-based. Conditions: Table 14.
Series [3] deals with Aspergillus. Nature of the series: Anti-Aspergillus activity (summary).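 Also: Letter grades where Y means active and y means less active.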 Type of series: cell-based. As to conditions: Table 14.
In series [4] the test system is Candida. Nature of the series: Anti-Candida activity (summary).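 Also: Letter grades where Y means active and y means less active.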 As to conditions: Table 14. It is filed as cell-based.
For series [5], the system named is 3T3. Nature of the series: Growth inhibition of 3T3 during 24 hours exposure. Type of series: cell-based, Mouse. As to conditions: Mus musculus, NIH3T3; 24 hours exposure; Table 1; read-out: Concentration causing 50% growth inhibition. As to the method: (§1) 3T3 = Mouse fibroblasts
(§2) Doses inhibiting growth in 50% were estimated by plotting concentration o
(§3) a logarithmic scale and percent of growth inhibition for 24 hours exposur
(§4) on a probability scale.

The nature of series [6]: Growth inhibition of 3T3 during 24 hours exposure. Type of series: cell-based, Mouse. As to conditions: mouse, 3t3 cells; Table 2; read-out: Toxicity Index, LC50 3T3 / LC50 C. albicans. Here is the method: as §1, §2, §3, §4
The subject of series [7] is P815 mastocytoma. The experiment in a line: LC50 (24 hrs.), doses required to inhibit growth in 50%, different method. As to conditions: Mus musculus, P815, 24 h. It is filed as cell-based.
Series [8] can be described thus: Growth inhibition of L1210 during 24 hours exposure. Type of series: cell-based, Mouse. As to conditions: mouse, l1210 cells; Table 2; read-out: Toxicity Index, LC50 L1210 / C. albicans. Here is the method: (§5) L1210 = Mouse lymphocytic leukemia
as §2, §3, §4

Series [9] deals with L1210. Described as above. It is filed as cell-based, Mouse. As to conditions: Mus musculus, L1210; 24 hours exposure; Table 1; read-out: Concentration causing 50% growth inhibition. As to the method:
as §5, §2, §3, §4

Series [10] is described as follows: Growth inhibition of P815 mastocytoma during 24 hours exposure. Type of series: cell-based, Mouse. Conditions: mouse, p815 cells. As to the method:
(§6) P815 = Mouse mastocytoma […]
as §3, §4

The subject of series [11] is P815. Described as above. Type of series: cell-based, Mouse. Conditions: 24 hours exposure. As to the method:
as §6, §3, §4

Series [12] relates to E. coli. The experiment in a line: Growth inhibition of E. coli during 24 hours exposure. Type of series: cell-based, Escherichia coli. As to conditions: 24 hours exposure, Table 4. As to the method: as §2, §3, §4
Series [13] has as its system P. aeruginosa. The experiment in a line: Growth inhibition of P. aeruginosa during 24 hours exposure. It is filed as cell-based, Pseudomonas aeruginosa. Conditions: 24 hours exposure, Table 4. As to the method: as §2, §3, §4
Series [14] relates to C. albicans. Nature of the series: Growth inhibition of C. albicans during 24 hours exposure. It is filed as cell-based, Candida albicans. Conditions: 24 hours exposure, Table 3.
The test system of series [15] is Aspergillus fumigatus. The experiment in a line: Sensitivity of Aspergillus fumigatus, agar diffusion method. It is filed as cell-based. As to conditions: disc diameter 6 mm, read-out: Zone of Growth Inhibition. The source says: Results were obtained by agar diffusion method. Disc diameter - 6 mm. -* = no zone over disc diameter.
(Agar diffusion results depend on both activity and mobility in agar.)

The subject of series [16] is C. albicans. The experiment in a line: Growth inhibition of C. albicans during 24 hours exposure. Conditions: 24 hours exposure; for IC50: Candida albicans. It is filed as cell-based, Candida albicans. As to the method: as §2, §3, §4
Series [17] in a line: Growth inhibition of WEHI-3 during 24 hours exposure. It is filed as cell-based, Mouse. As to conditions: mouse, wehi-3 cells; Table 2; read-out: Toxicity Index, LC50 WEHI-3 / LC50 C. albicans. As to the method: (§7) WEHl3 = Mouse myelomonocyte
as §2, §3, §4

Series [18] concerns WEHI-3. The description is as above. Conditions: Mus musculus, WEHI-3; 24 hours exposure; Table 1; read-out: Concentration causing 50% growth inhibition. It is filed as cell-based, Mouse. Here is the method: as §7, §2, §3, §4
In series [19] the test system is E. coli. The experiment in a line: Growth inhibition of E. coli during 24 hours exposure. It is filed as cell-based, Escherichia coli. Conditions: 24 hours exposure, Table 3.
Series [20] has as its system P. aeruginosa. Nature of the series: Growth inhibition of P. aeruginosa during 24 hours exposure. It is filed as cell-based, Pseudomonas aeruginosa. Conditions: for Minimal concentration causing 100% growth inhibition: Table 3.
The subject of series [21] is murine cytomegalovirus and Sindbis virus. As to conditions: phototoxic activity; cited from earlier work.
In series [22] the test system is Sindbis virus. As to conditions: only in presence of long wave ultraviolet radiation; cited from earlier work.
The subject of series [23] is murine cytomegalovirus. As to conditions: only in presence of long wave ultraviolet radiation; cited from earlier work.
The subject of series [24] is above organisms, as well as CHO cells. As to conditions: UV-A light required; cited from earlier work.
Setting [25] is: Table 7, read-out: LC50 (24 hrs.), dose required to inhibit growth in 50%.
[26] abbreviates: Table 13, read-out: Lc50 24 hrs.

Values after ≈ are worked out from the molar mass of the structure shown. Read-outs that look alike come from different tables or passages of the source. Some results are limits rather than exact numbers.

What is called zone of inhibition is the size of the clear area around the sample on an inoculated plate.

Turning to `Clc1ccc(COC(Cn2ccnc2)c2ccc(Cl)cc2Cl)cc1` (stereo not drawn) [Econazole, reference compound], the IC50 in series [1] (setting [25]) is 0.056 mg/L (≈ 0.147 µM).
For `C=CC#CC1=CC=C(C#CC#CC)SS1` [Thiarubrine B, 3 (pent-3-yn-1-ynyl) 6 (3-buten-1-ynyl)-1,2-dithiacyclohexa-3,5-diene, reference compound], in [2], the Anti-bacterial entry was “Y”. Further, the Anti-Aspergillus result in series [3] is listed as “Y”. The Anti-Candida result in [4] is on record as “Y”.
In the case of `C=C/C=C/C#CC1=CC=C(C#CC)SS1` [Thiarubrine C, reference compound], in [2], the Anti-bacterial result was “Y”. For the same molecule, the Anti-Aspergillus result in [3] was “Y”. For the same molecule, the Anti-Candida result in series [4] is given as “Y”.
With `CC#CC1=CC=C(C#CC#CC(O)CO)SS1` (stereo not drawn) [Thiarubrine E], the Anti-bacterial result in [2] is listed as “Y”. For the same molecule, the IC50 was 0.12 mg/L (≈ 0.457 µM) in series [5]; 0.028 mg/L (≈ 0.107 µM) in series [7] (read-out: LC50 (24 hrs.), dose required to inhibit growth in 50%); 0.027 mg/L (≈ 0.103 µM) in [9]; 0.024 mg/L (≈ 0.0915 µM) in [11] (Mus musculus, P815, Table 1, read-out: Concentration causing 50% growth inhibition); 0.024 mg/L (≈ 0.0915 µM) in [11] (Mus musculus, P815, Table 4, read-out: Minimal concentration causing 50% growth inhibition); 0.015 mg/L (≈ 0.0572 µM) in series [12] (Escherichia coli, read-out: Minimal concentration causing 50% growth inhibition). The IC50 in series [13] (Pseudomonas aeruginosa, read-out: Minimal concentration causing 50% growth inhibition) was 0.28 mg/L (≈ 1.07 µM); in series [1] (setting [25]), 0.006 mg/L (≈ 0.0229 µM); in [16] (Table 1, read-out: Concentration causing 50% growth inhibition) it was 0.0014 mg/L (≈ 0.00534 µM); in series [16] (Table 4, read-out: Minimal concentration causing 50% growth inhibition), 0.0014 mg/L (≈ 0.00534 µM); in series [18], 0.04 mg/L (≈ 0.152 µM). The selectivity ratio at 24 h in series [6] stood at 86; in [8], 19; in series [10] (50% growth inhibition, Table 4, read-out: Ratio of concentration needed to inhibit growth in 50%, P815 vs C. albicans), 17; in [10] (100% growth inhibition, Table 3, read-out: Ratio of minimal concentration causing 100% growth inhibition, P815 line vs C. albicans), 65; in series [10] (Table 2, read-out: Toxicity Index, LC50 P815 / LC50 C. albicans), 17; in [17], 28. Also, in series [11] (Mus musculus, P815, Table 3, read-out: Minimal concentration causing 100% growth inhibition), the IC100 was found to be 0.312 µg/mL. The MIC worked out at 0.0048 mg/L (≈ 0.0183 µM) in series [14] (Candida albicans, read-out: Minimal concentration causing 100% growth inhibition); 0.019 mg/L (≈ 0.0724 µM) in series [19] (Escherichia coli, read-out: Minimal concentration causing 100% growth inhibition); 0.625 mg/L (≈ 2.38 µM) in series [20] (Pseudomonas aeruginosa, Table 3, read-out: Minimal concentration causing 100% growth inhibition). The “Inhibition of growth of Candida albicans” value in series [1] is reported as “nanogram/ml range”. Also, in series [3], the Anti-Aspergillus entry is given as “Y”. Also, in [15] (10 ng/disc), the zone of inhibition at 0.01 µg/disc turned out to be 17 mm. Also, the zone of inhibition at 0.1 µg/disc in series [15] (100 ng/disc) came out at 36 mm. The zone of inhibition at 1 µg/disc in series [15] (1,000 ng/disc) came out at 50 mm. The zone of inhibition at 10 µg/disc in [15] (10,000 ng/disc) stood at 50 mm. In series [4], the Anti-Candida result is listed as “Y”.
As to `CC#CC1=CC=C(C#CC#CC(Cl)CO)SS1` (stereo not drawn) [Thiarubrine F], in [2], the Anti-bacterial entry was “Y”. Also, the IC50 in [7] (read-out: Lc50 24 hrs.) amounted to 0.14 mg/L (≈ 0.499 µM); in series [1] (setting [26]), 0.006 mg/L (≈ 0.0214 µM). Moreover, the “Inhibition of growth of Candida albicans” value in series [1] was “nanogram/ml range”. For the same molecule, the Anti-Aspergillus result in [3] is “Y”. Moreover, in [4], the Anti-Candida entry is “Y”.
On to `CC#CC1=CC=C(C#CC#CC(O)CCl)SS1` (stereo not drawn) [Thiarubrine G], for which the Anti-bacterial entry in series [2] is reported as “Y”. Further, the IC50 was determined as 0.09 mg/L (≈ 0.321 µM) in [7] (read-out: Lc50 24 hrs.) and 0.008 mg/L (≈ 0.0285 µM) in [1] (setting [26]). Besides, the “Inhibition of growth of Candida albicans” value in series [1] is given as “nanogram/ml range”. Moreover, the Anti-Aspergillus result in series [3] is “Y”. Moreover, the Anti-Candida result in [4] was “Y”.
Regarding `C=CC#CC#CC1=CC=C(C#CCO)SS1` [Thiarubrine H], the IC50 was 0.059 mg/L (≈ 0.241 µM) in series [7] (read-out: Lc50 24 hrs.) and 0.004 mg/L (≈ 0.0164 µM) in series [1] (setting [26]). The “Inhibition of growth of Candida albicans” value in series [1] is on record as “nanogram/ml range”. Besides, in series [4], the Anti-Candida result is recorded as “Y”.
As to `CC#Cc1ccc(C#CC#CC(O)CO)s1` (stereo not drawn) [Thiophene E], the “Minimal concentration causing 100% growth inhibition” value in series [11] (Table 3), in series [14], in series [19] and in [20] was > 5.0 µg/mL throughout. Besides, the “Minimal concentration causing 50% growth inhibition” value in series [11] (Table 4) is 4.0 µg/mL; in [12], > 5.0 µg/mL; in series [13], > 5.0 µg/mL; in series [16] (Table 4), 4.5 µg/mL.
Take `c1csc(-c2ccc(-c3cccs3)s2)c1` [alpha-terthienyl]: in series [21], the Order of potency result was “alpha-terthienyl thiarubrine-A > phenylheptatriyne > ACBP-thiophene > thiophene-A”. The Toxicity to virus result in series [22] and in series [23] was “extremely toxic” throughout.
Regarding `C=CC#CC#Cc1ccc(C#CC)s1` [thiophene A], in series [21], the Order of potency entry is recorded as “alpha-terthienyl thiarubrine-A > phenylheptatriyne > ACBP-thiophene > thiophene-A”. The Phototoxicity entry in series [24] is on record as “phototoxic, requiring UV-A light for biological activity”.
Turning to Gentamycin [reference compound], the “Minimal concentration causing 50% growth inhibition” value came to 0.37 µg/mL in series [12] and 1.0 µg/mL in series [13]. In addition, the results for the “Minimal concentration causing 100% growth inhibition” value in series [19] and in [20] were 1.25 µg/mL and 2.5 µg/mL, respectively.
